Values quoted from earlier work as cited in patent publication US6942970B2, “Identifying subjects suitable for topoisomerase II inhibitor treatment” (Zymed Laboratories, Inc., priority 2000, dated 2005).

Tested on: advanced breast cancer
Details: first-line chemotherapy, advanced breast cancer patients

COc1cccc2c1C(=O)c1c(O)c3c(c(O)c1C2=O)C[C@@](O)(C(=O)CO)C[C@@H]3O[C@H]1C[C@H](N)[C@@H](O)[C@H](C)O1 [epirubicin]
response rate (CR+PR): 48%
